Measured values taken from patent publication US9751837B2, “Kinase inhibitors” (RESPIVERT LIMITED, priority 2014, dated 2017).
Values after ≈ are worked out from the molar mass of the structure shown. Counter-ions that a name gives are not always drawn. Like-named read-outs stand apart in the source and are kept apart here.

How the values were obtained:
[1] = Solubility in fasted-state simulated colonic fluid (FaSSCoF) at pH 6.5; format: physicochemical; settings: 25 °C, pH 6.5, fassgf or other biorelevant, thermodynamic from solid
Summary of the method: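 Compounds were suspended at up to 2-10 mg/mL in pH 6.5 Tris/maleate FaSSCoF containing a five-bile-acid mixture, phosphatidylcholine, palmitic acid and BSA. After 24 h equilibration at 25° C the suspension was filtered and the filtrate quantified by HPLC peak area against a standard.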

[2] = biological target: human ether a go-go (hERG) channel (Homo sapiens (Human), UniProt Q12809); test: hERG inhibition, IonWorks patch clamp electrophysiology; format: cell-based; settings: IonWorks patch clamp
Sequence of human ether a go-go (hERG) channel (Q12809 whole entry): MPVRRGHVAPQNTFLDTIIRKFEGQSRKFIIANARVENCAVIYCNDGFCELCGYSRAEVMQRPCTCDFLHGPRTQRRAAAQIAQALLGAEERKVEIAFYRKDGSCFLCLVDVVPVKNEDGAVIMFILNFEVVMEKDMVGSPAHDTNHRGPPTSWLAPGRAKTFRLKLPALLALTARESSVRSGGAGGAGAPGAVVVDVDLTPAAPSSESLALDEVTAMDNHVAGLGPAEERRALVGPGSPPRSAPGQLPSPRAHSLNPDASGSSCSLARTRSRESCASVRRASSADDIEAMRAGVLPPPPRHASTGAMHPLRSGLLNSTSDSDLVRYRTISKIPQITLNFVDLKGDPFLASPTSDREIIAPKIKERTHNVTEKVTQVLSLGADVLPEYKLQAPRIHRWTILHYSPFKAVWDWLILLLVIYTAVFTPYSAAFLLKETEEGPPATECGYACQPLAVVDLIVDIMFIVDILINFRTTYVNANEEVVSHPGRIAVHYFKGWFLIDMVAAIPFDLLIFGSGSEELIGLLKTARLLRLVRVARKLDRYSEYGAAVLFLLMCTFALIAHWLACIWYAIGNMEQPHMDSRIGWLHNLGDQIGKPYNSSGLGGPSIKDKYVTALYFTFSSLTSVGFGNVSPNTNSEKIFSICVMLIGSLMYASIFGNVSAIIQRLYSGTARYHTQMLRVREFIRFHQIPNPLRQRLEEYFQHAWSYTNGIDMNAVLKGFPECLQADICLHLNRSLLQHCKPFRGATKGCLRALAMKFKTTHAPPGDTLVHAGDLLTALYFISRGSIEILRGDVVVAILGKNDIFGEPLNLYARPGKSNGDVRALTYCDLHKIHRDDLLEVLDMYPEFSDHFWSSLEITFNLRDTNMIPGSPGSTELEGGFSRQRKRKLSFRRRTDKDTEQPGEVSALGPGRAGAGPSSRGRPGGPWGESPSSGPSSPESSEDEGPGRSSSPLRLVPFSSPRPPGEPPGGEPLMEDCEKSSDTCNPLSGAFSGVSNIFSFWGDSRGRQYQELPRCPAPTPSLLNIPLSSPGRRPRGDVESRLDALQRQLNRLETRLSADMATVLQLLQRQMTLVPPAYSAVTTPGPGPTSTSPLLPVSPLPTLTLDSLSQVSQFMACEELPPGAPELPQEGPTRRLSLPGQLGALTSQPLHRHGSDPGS
Description: (§1) Compounds of the invention were tested for inhibition of the human ether a go-go (hERG) channel using IonWorks™ patch clamp electrophysiology at Essen Bioscience (Welwyn Garden City, England).

hERG = hERG (Homo sapiens (Human), UniProt Q12809); test: as above; format: cell-based; settings: human, hERG, read-out: % Inhibition at Top Concentration
Sequence of hERG (Q12809 whole entry): as above
Description: as §1

[3] = Stability of pharmaceutical formulations (HPLC); format: physicochemical; settings: 1 mg/mL solution; for Purity (%) at week n = 4: 4 weeks
Description: The samples were sonicated to achieve clear solutions having the following properties: Osmolality (mOsm/kg): 310 (Na), 314 (HCl); pH: 7.00 (Na), 7.05 (HCl). 0.5 mL of the stock solutions were diluted to 1 mL with 20% DMSO in water & injected for purity analysis by HPLC. The remaining stock solutions were then split into aliquots of 0.5 mL in HPLC vials, and stored at various conditions in duplicate. Samples were stored at 5 and 25° C., before being analysed by HPLC at 1, 2 and 4 weeks. Separate samples were stored at 40° C. and analysed at 4 weeks.

Jurkat cells = test: Cell cytotoxicity assay (r); format: cell-based, human; settings: 24 hours
Summary of the method: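 Jurkat cells (1×10^5/well, RPMI + 10% FBS) exposed to compound at 20, 5 or 1 μg/mL final (1.0% DMSO control) for 24 h at 37° C., 5% CO2. Then stained with 7.5 μg/mL propidium iodide for 15 min. % viability = PI-negative cells by flow cytometry, normalized to DMSO.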

B-Raf = B-Raf (Homo sapiens (Human), UniProt P15056); test: KINOMEscan binding of B-Raf to its standard ligand
Sequence of B-Raf (P15056 whole entry): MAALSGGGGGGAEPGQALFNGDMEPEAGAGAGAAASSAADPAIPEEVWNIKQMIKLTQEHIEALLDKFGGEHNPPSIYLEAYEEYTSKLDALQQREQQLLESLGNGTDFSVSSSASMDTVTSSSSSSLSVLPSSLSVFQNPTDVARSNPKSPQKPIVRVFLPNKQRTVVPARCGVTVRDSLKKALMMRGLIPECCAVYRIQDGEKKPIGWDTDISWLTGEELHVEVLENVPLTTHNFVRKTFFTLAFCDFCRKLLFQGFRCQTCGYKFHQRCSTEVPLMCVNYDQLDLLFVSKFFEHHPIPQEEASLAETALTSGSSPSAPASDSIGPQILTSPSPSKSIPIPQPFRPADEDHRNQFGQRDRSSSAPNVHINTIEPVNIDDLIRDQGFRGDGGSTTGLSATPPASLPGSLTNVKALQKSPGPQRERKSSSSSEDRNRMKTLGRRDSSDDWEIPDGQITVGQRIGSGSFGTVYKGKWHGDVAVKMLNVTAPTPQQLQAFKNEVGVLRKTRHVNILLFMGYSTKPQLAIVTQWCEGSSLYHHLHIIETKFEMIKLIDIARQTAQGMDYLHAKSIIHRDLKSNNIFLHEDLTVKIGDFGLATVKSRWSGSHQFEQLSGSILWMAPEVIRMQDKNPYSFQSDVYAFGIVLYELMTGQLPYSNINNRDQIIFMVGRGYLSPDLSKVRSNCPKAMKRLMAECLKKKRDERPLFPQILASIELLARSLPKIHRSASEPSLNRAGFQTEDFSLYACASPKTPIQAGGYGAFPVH
Source text: (§2) These assays may be conducted by DiscoverX (formerly Ambit; San Diego, Calif.).

B-Raf (V600E) = B-Raf (V600E) (Homo sapiens (Human), UniProt P15056, V600E); test: KINOMEscan binding of B-Raf (V600E) to its standard ligand
Sequence of B-Raf (V600E) (P15056 whole entry V600E): as the sequence (P15056 whole entry) above, with V600E counted along it
Source text: as §2

non-mutant kinases = test: KinomeScan Selectivity Scores; format: binding; settings: for KinomeScan Selectivity Score S(1): (non-mutant kinases with % Ctrl <1)/(non-mutant kinases tested)
Source text: as §2

GSK 3α = GSK 3α (Homo sapiens (Human), UniProt P49840); test: GSK 3α enzyme inhibition (Method 2), Z-LYTE FRET; format: biochemical; settings: read-out: IC50 Values for Enzyme Inhibition GSK3α
Sequence of GSK 3α (P49840 whole entry): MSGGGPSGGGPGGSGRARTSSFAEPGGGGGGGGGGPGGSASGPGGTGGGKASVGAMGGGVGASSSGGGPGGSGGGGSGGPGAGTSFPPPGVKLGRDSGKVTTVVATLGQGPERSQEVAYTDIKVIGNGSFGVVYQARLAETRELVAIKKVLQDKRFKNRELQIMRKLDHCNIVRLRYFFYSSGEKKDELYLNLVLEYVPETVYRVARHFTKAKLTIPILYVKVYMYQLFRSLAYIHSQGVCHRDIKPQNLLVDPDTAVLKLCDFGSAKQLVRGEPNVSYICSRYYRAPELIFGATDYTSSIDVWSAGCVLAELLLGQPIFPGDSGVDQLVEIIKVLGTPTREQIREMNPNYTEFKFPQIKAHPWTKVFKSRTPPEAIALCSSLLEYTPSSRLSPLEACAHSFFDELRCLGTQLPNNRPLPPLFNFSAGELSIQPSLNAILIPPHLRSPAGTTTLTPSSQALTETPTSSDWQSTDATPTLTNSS
Summary of the method: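 GSK3-α (500 ng/mL stock) was preincubated with compound at RT for 2 hr (Method 1; 4-0.004 μg/mL stocks) or 105 min (Method 2; 10-0.01 μg/mL stocks). The Z-LYTE FRET peptide (8 μM stock) and ATP (40 μM stock) were then reacted for 1 hr, followed by 1 hr protease development. Phosphorylation was read as the coumarin/fluorescein emission ratio.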

[4] = pH 6.5 FaSSCoF Solubility (mg/mL) Run 1
[5] = pH 6.5 FaSSCoF Solubility (mg/mL) Run 2

solubility thermodynamic at 24 h [1, 4] [mg/mL] | solubility thermodynamic at 24 h [1, 5] [mg/mL] | IC50 (GSK 3α) [µM] | Structure (SMILES) | IC50 [2] [µM] | inhibition at 11 µM (hERG) [%] | further results
0.017 (≈ 19.9 µM) | 0.025 (≈ 29.2 µM) | – | COc1cc(Nc2cc(Oc3ccc(NC(=O)Nc4cc(C(C)(C)C)cc(NS(C)(=O)=O)c4OC)c4ccccc34)ccn2)cc(OC)c1C(=O)NCCN1CCN(C)CC1 [Example 22, 4-((4-((4-(3-(5-(tert-Butyl)-2-methoxy-3-(methylsulfonamido)phenyl)ureido)naphthalen-1-yl)oxy)pyridin-2-yl)amino)-2,6-dimethoxy-N-(2-(4-methylpiperazin-1-yl)ethyl)benzamide] | > 3.7 | – | solubility thermodynamic at 24 h ([1]; pH 6.5 FaSSCoF Solubility (mg/mL) Run 3): 0.013 mg/mL (≈ 15.2 µM); solubility thermodynamic at 24 h ([1]; pH 6.5 FaSSCoF Solubility (mg/mL) Run 4): 0.009 mg/mL (≈ 10.5 µM); inhibition at 3.7 µM (hERG; 3.7 μM): 13%
0.01 (≈ 12.4 µM) | 0.01 (≈ 12.4 µM) | 2.79 | C#Cc1cc(Nc2cc(Oc3ccc(NC(=O)Nc4cc(C(C)(C)C)cc(NS(C)(=O)=O)c4OC)c4ccccc34)ccn2)ccc1C(=O)NCCN1CCOCC1 [Example 15, 4-[[4-[[4-[[5-tert-Butyl-3-(methanesulfonamido)-2-methoxy-phenyl]carbamoylamino]-1-naphthyl]oxy]-2-pyridyl]amino]-2-ethynyl-N-(2-morpholinoethyl)benzamide] | – | – | % Viability at 5 μg/mL (Jurkat cells; 5 μg/mL): 75.0%
0.016 (≈ 19.4 µM) | 0.013 (≈ 15.8 µM) | 2.21 | COc1cc(Nc2cc(Oc3ccc(NC(=O)Nc4cc(C(C)(C)C)cc(NS(C)(=O)=O)c4OC)c4ccccc34)ccn2)ccc1C(=O)NCCC1CCN(C)CC1 [Example 14, 4-[[4-[[4-[[5-tert-Butyl-3-(methanesulfonamido)-2-methoxy-phenyl]carbamoylamino]-1-naphthyl]oxy]-2-pyridyl]amino]-2-methoxy-N-[2-(1-methyl-4-piperidyl)ethyl]benzamide] | – | – | % Viability at 20 μg/mL (Jurkat cells): 0.7%
– | – | 4.68 | COc1cc(Nc2cc(Oc3ccc(NC(=O)Nc4cc(C(C)(C)C)cc(NS(C)(=O)=O)c4OC)c4ccccc34)ccn2)ccc1C(=O)NCCN1CCCCC1 [17(p), 4-[[4-[[4-[[5-tert-butyl-3-(methanesulfonamido)-2-methoxy-phenyl]carbamoylamino]-1-naphthyl]oxy]-2-pyridyl]amino]-2-methoxy-N-[2-(1-piperidyl)ethyl]benzamide] | – | – | % Viability at 20 μg/mL (Jurkat cells): 1.5%
– | – | 2 | COc1cc(Nc2cc(Oc3ccc(NC(=O)Nc4cc(C(C)(C)C)cc(NS(C)(=O)=O)c4OC)c4ccccc34)ccn2)ccc1C(=O)NC1CCN(C)CC1 [17(j), 4-[[4-[[4-[[5-tert-butyl-3-(methanesulfonamido)-2-methoxy-phenyl]carbamoylamino]-1-naphthyl]oxy]-2-pyridyl]amino]-2-methoxy-N-(1-methyl-4-piperidyl)benzamide] | > 3.3 | – | inhibition at 3 µM (hERG; 3 μM): 7%

The remaining lines, values behind:

Structure (SMILES) | solubility thermodynamic at 24 h [1, 4] [mg/mL] | solubility thermodynamic at 24 h [1, 5] [mg/mL] | IC50 (GSK 3α) [µM] | IC50 [2] [µM] | inhibition at 11 µM (hERG) [%] | further results
COc1cc(Nc2cc(Oc3ccc(NC(=O)Nc4cc(C(C)(C)C)cc(NS(C)(=O)=O)c4OC)c4ccccc34)ccn2)ccc1C(=O)O.Cl [Example 1, hydrochloride salt] | – | – | – | – | – | Purity (%) at week n = 2 ([3]; stored at 5° C., 2 weeks): 98.0%; Purity (%) at week n = 4 ([3]; stored at 5° C.): 98.0%; Purity (%) at week n = 1 ([3]; stored at 25° C., 1 week): 98.0%
COc1cc(Nc2cc(Oc3ccc(NC(=O)Nc4cc(C(C)(C)C)cc(NC(=O)CO)c4OC)c4ccccc34)ccn2)ccc1C(=O)NCCN1CC[S+]([O-])CC1 [Example 41, 4-((4-((4-(3-(5-(tert-Butyl)-3-(2-hydroxyacetamido)-2-methoxyphenyl)ureido)naphthalen-1-yl)oxy)pyridin-2-yl)amino)-2-methoxy-N-(2-(1-oxidothiomorpholino)ethyl)benzamide] | 0.007 (≈ 8.5 µM) | 0.003 (≈ 3.64 µM) | – | > 11 | 7 | –
CCOP(C)(=O)c1ccc(Nc2cc(Oc3ccc(NC(=O)Nc4cc(C(C)(C)C)cc(NS(C)(=O)=O)c4OC)c4ccccc34)ccn2)cc1OC (stereo not drawn) [Example 43, ethyl (4-((4-((4-(3-(5-(tert-butyl)-2-methoxy-3-(methylsulfonamido)phenyl)-ureido)naphthalen-1-yl)oxy)pyridin-2-yl)amino)-2-methoxyphenyl)(methyl)phosphinate] | – | – | – | > 11 | 13 | solubility thermodynamic at 24 h ([1]; FaSSCoF pH 6.5, 25° C., 24 h, Run 1, read-out: pH 6.5 FaSSCoF Solubility (mg/mL) Run 1): 0.003 mg/mL (≈ 3.94 µM); solubility thermodynamic at 24 h ([1]; FaSSCoF pH 6.5, 25° C., 24 h, Run 2, read-out: pH 6.5 FaSSCoF Solubility (mg/mL) Run 2): 0.003 mg/mL (≈ 3.94 µM)
COc1cc(Nc2cc(Oc3ccc(NC(=O)Nc4cc(C(C)(C)C)cc(N(CCO)S(C)(=O)=O)c4OC)c4ccccc34)ccn2)ccc1C(=O)NCCN1CC[S+]([O-])CC1 [Example 48, 4-((4-((4-(3-(5-(tert-Butyl)-3-(N-(2-hydroxyethyl)methylsulfonamido)-2-methoxyphenyl)-ureido)naphthalen-1-yl)oxy)pyridin-2-yl)amino)-2-methoxy-N-(2-(1-oxidothiomorpholino)-ethyl)benzamide] | 0.011 (≈ 12.4 µM) | 0.01 (≈ 11.3 µM) | – | > 11 | -6 | % Viability at 1 μg/mL (Jurkat cells; 1 μg/mL): 89.0%
COc1cc(Nc2cc(Oc3ccc(NC(=O)Nc4cc(C(C)(C)C)cc(NS(C)(=O)=O)c4OC)c4ccccc34)ccn2)ccc1C(=O)O [Example 1, sodium salt] | – | – | – | – | – | Purity (%) at week n = 4 ([3]; stored at 40° C.): 76.0%
COc1cc(Nc2cc(Oc3ccc(NC(=O)Nc4cc(C(C)(C)C)cc(NS(C)(=O)=O)c4OC)c4ccccc34)ccn2)cc(OC)c1C(=O)NCCOCCOCCO [Example 36, 4-((4-((4-(3-(5-(tert-butyl)-2-methoxy-3-(methylsulfonamido)phenyl)ureido)naphthalen-1-yl)oxy)pyridin-2-yl)amino)-N-(2-(2-(2-hydroxyethoxy)ethoxy)ethyl)-2,6-dimethoxybenzamide] | 0.006 (≈ 6.97 µM) | 0.006 (≈ 6.97 µM) | – | > 11 | 24 | effect on the binding of B-Raf to its standard ligand (B-Raf): did not have any significant effect; effect on the binding of B-Raf (V600E) to its standard ligand (B-Raf (V600E)): did not have any significant effect; KinomeScan Selectivity Score S(1) (non-mutant kinases; 50 nM): 0.002; KinomeScan Selectivity Score S(10) (non-mutant kinases; 50 nM, (non-mutant kinases with % Ctrl <10)/(non-mutant kinases tested)): 0.050; KinomeScan Selectivity Score S(1) (non-mutant kinases; 500 nM): 0.079
